Measured values published in US8192962B2, “Processes for detecting toxic substances” (Daikin Industries, Ltd., priority 2001, dated 2012).

System: Transport facilitation protein genes
Experiment: DNA chip mRNA expression in yeast, transport facilitation protein genes (Table 5)
Type: cell-based, Saccharomyces cerevisiae S288C
How it was run: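 Value is the scanned fluorescence intensity ratio of exposed versus chemical-free cells. Log-phase S288C yeast in YPD at 25° C. received one toxic substance for two hours, dosed to slow growth without killing; Cy3/Cy5-labeled cDNA from oligo-dT-purified mRNA was hybridized to a whole-genome chip at 65° C.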

Measured: The level of expressed mRNA in the presence of chemical substance/The level of expressed mRNA in the absence of chemical substance

S=C([S-])NCCNC(=S)[S-].[Zn+2] [(11), zinc N,N′-ethylenebis(dithiocarbamate)]
3.4: yeast gene YOL119C
1.9: yeast gene YBR132C | yeast gene YKR039W | yeast gene YNL055C
1.3: yeast gene YCR098C | yeast gene YGR082W | yeast gene YGR260W | yeast gene YJL034W | yeast gene YKL016C | yeast gene YKR067W | yeast gene YLR295C | yeast gene YLR348C
1.1: yeast gene YBL030C | yeast gene YBR127C | yeast gene YBR207W | yeast gene YBR293W | yeast gene YBR295W | yeast gene YDR086C | yeast gene YGR065C | yeast gene YGR197C | yeast gene YHR175W | yeast gene YOL156W | yeast gene YOR328W | yeast gene YOR348C
2.4: yeast gene YER053C | yeast gene YOR316C
0.8: yeast gene YBR068C | yeast gene YCR037C | yeast gene YEL063C | yeast gene YGL006W | yeast gene YGL167C | yeast gene YGR096W | yeast gene YGR224W | yeast gene YPL036W
0.6: yeast gene YDL210W | yeast gene YEL065W | yeast gene YHR094C | yeast gene YOR130C
2.1: yeast gene YBL099W | yeast gene YFL011W
1.5: yeast gene YBR298C | yeast gene YCR024C-A | yeast gene YDL245C | yeast gene YDR345C | yeast gene YGR055W | yeast gene YHR092C | yeast gene YMR011W | yeast gene YOR270C | yeast gene YOR273C | yeast gene YOR332W
2.5: yeast gene YDL198C
2.7: yeast gene YFL055W
0.9: yeast gene YDR038C | yeast gene YDR039C | yeast gene YEL027W | yeast gene YFL041W | yeast gene YHL035C | yeast gene YJL212C | yeast gene YJR121W | yeast gene YKL146W
1.2: yeast gene YBR294W | yeast gene YDL128W | yeast gene YDR298C | yeast gene YFL050C
2.3: yeast gene YDR343C | yeast gene YHL036W | yeast gene YJL219W | yeast gene YMR203W
1.8: yeast gene YGL104C | yeast gene YIL088C | yeast gene YPL265W
3.6: yeast gene YLL055W
1.0: yeast gene YCL025C | yeast gene YDR270W | yeast gene YHL047C | yeast gene YIL006W | yeast gene YIL022W | yeast gene YLR378C | yeast gene YOR035C | yeast gene YOR153W
0.7: yeast gene YDR497C | yeast gene YGL008C | yeast gene YGR138C | yeast gene YGR281W | yeast gene YIL056W | yeast gene YLL028W | yeast gene YOL158C | yeast gene YPR192W | yeast gene YPR194C
1.4: yeast gene YHR026W | yeast gene YNR072W
0.5: yeast gene YGL255W
1.6: yeast gene YGR191W | yeast gene YJR077C | yeast gene YJR106W | yeast gene YNL259C | yeast gene YOL163W
2.2: yeast gene YER119C
2.9: yeast gene YDR342C
2.6: yeast gene YLR081W
1.7: yeast gene YBR052C | yeast gene YFL054C | yeast gene YHL040C | yeast gene YMR162C | yeast gene YPL134C | yeast gene YPL271W
2.0: yeast gene YCL038C | yeast gene YDR387C | yeast gene YHR048W | yeast gene YPR124W
